Experimental data: the supplement of paper PMC11451515

How the values were obtained:
Settings in all cases: 48 h
[1] = test system: P12-Ichikawa; assay: AUC of viability dose-response curve (% viability x log10 dose units); higher = less sensitive
Procedure, shortened: (§1)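 Leukemia cells adapted to each medium (500 or 1000 cells/well, 1536-well plates) were exposed to library compounds in DMSO for 48 h at 37°C at 11 threefold doses, 47 μM to 0.79 nM. Luminescence by CellTiter-Glo One was normalised per plate to DMSO and cell-free wells, then fitted with a four-parameter log-logistic curve on log10 dose. Curves above full viability were scaled and quality-control failures removed before area under the curve was integrated by trapezoidal rule.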

[2] = test system: SEM cells; assay: as above
Procedure, shortened: as §1

[3] = test system: NOMO1; assay: as above
Procedure, shortened: as §1

[4] = test system: P12-Ichikawa; assay: cell viability relative to DMSO control; higher = less cytotoxic
Procedure, shortened: (§2)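 Viability is a per-plate percentage relative to DMSO wells, with cell-free wells as background. CellTiter-Glo One luminescence was read after 48 h at 37°C on 1536-well plates (5 μl) of NOMO1 or SEM (500 cells/well) or P12-Ichikawa (1000 cells/well) leukemia cells. The cells had been adapted for at least four passages in each medium and pin-dosed with library compounds in DMSO from 47 μM to 0.79 nM in 11 threefold steps.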

[5] = test system: SEM cells; assay: as above
Procedure, shortened: as §2

[6] = test system: NOMO1; assay: as above
Procedure, shortened: as §2

CC(=O)N(C)C1(c2ccccc2)CCN(CCC[C@]2(c3ccc(Cl)c(Cl)c3)CCCN(C(=O)c3ccccc3)C2)CC1
AUC of viability dose-response curve
Settings	[1]	[2]	[3]
HPLM + 10% dialyzed FBS	346	305	294
RPMI 5 mM glucose + 10% FBS	387	303	344
RPMI 5 mM glucose + 10% dialyzed FBS	366	326	343

cell viability [%]
Settings	[4]	[5]	[6]
HPLM + 10% dialyzed FBS, 0.000781 µM	115	120	116
HPLM + 10% dialyzed FBS, 0.00234 µM	114	129	124
HPLM + 10% dialyzed FBS, 0.00702 µM	115	124	128
HPLM + 10% dialyzed FBS, 0.0211 µM	116	116	117
HPLM + 10% dialyzed FBS, 0.0632 µM	114	123	123
HPLM + 10% dialyzed FBS, 0.19 µM	108	120	104
HPLM + 10% dialyzed FBS, 0.569 µM	91.1	74.1	58.4
HPLM + 10% dialyzed FBS, 1.71 µM	54.9	14.2	25.1
HPLM + 10% dialyzed FBS, 5.12 µM	45.1	11.2	9.73
HPLM + 10% dialyzed FBS, 15.4 µM	33.9	9.08	10
HPLM + 10% dialyzed FBS, 46.1 µM	7.84	7.03	4.11
RPMI 5 mM glucose + 10% FBS, 0.000781 µM	110	109	106
RPMI 5 mM glucose + 10% FBS, 0.00234 µM	110	130	109
RPMI 5 mM glucose + 10% FBS, 0.00702 µM	110	103	122
RPMI 5 mM glucose + 10% FBS, 0.0211 µM	107	126	126
RPMI 5 mM glucose + 10% FBS, 0.0632 µM	114	123	128
RPMI 5 mM glucose + 10% FBS, 0.19 µM	119	123	122
RPMI 5 mM glucose + 10% FBS, 0.569 µM	111	78.7	111
RPMI 5 mM glucose + 10% FBS, 1.71 µM	88.4	9.2	65.5
RPMI 5 mM glucose + 10% FBS, 5.12 µM	55.8	6.49	15.3
RPMI 5 mM glucose + 10% FBS, 15.4 µM	41.1	6.83	8.99
RPMI 5 mM glucose + 10% FBS, 46.1 µM	12.1	4.78	5.76
RPMI 5 mM glucose + 10% dialyzed FBS, 0.000781 µM	110	109	110
RPMI 5 mM glucose + 10% dialyzed FBS, 0.00234 µM	107	145	112
RPMI 5 mM glucose + 10% dialyzed FBS, 0.00702 µM	110	119	114
RPMI 5 mM glucose + 10% dialyzed FBS, 0.0211 µM	112	128	115
RPMI 5 mM glucose + 10% dialyzed FBS, 0.0632 µM	117	139	106
RPMI 5 mM glucose + 10% dialyzed FBS, 0.19 µM	108	128	115
RPMI 5 mM glucose + 10% dialyzed FBS, 0.569 µM	99.8	133	100
RPMI 5 mM glucose + 10% dialyzed FBS, 1.71 µM	79.9	18.4	60.3
RPMI 5 mM glucose + 10% dialyzed FBS, 5.12 µM	38.9	12	16.9
RPMI 5 mM glucose + 10% dialyzed FBS, 15.4 µM	18.5	10.6	10.3
RPMI 5 mM glucose + 10% dialyzed FBS, 46.1 µM	11.2	6.46	5.1

C[C@H](CCC(=O)O)[C@H]1CC[C@H]2[C@@H]3[C@H](O)C[C@@H]4C[C@H](O)CC[C@]4(C)[C@H]3CC[C@]12C
AUC of viability dose-response curve
Settings	[1]	[2]	[3]
HPLM + 10% dialyzed FBS	448	417	443
RPMI 5 mM glucose + 10% FBS	431	406	436
RPMI 5 mM glucose + 10% dialyzed FBS	418	433	409

cell viability [%]
Settings	[4]	[5]	[6]
HPLM + 10% dialyzed FBS, 0.000781 µM	94.6	79.7	93.9
HPLM + 10% dialyzed FBS, 0.00234 µM	87.9	80.7	93.7
HPLM + 10% dialyzed FBS, 0.00702 µM	93.9	96.3	108
HPLM + 10% dialyzed FBS, 0.0211 µM	92.4	80.3	99.5
HPLM + 10% dialyzed FBS, 0.0632 µM	98.8	99.9	106
HPLM + 10% dialyzed FBS, 0.19 µM	97.5	84	98.4
HPLM + 10% dialyzed FBS, 0.569 µM	93.3	95	102
HPLM + 10% dialyzed FBS, 1.71 µM	92.8	92.5	99
HPLM + 10% dialyzed FBS, 5.12 µM	92.2	93.5	101
HPLM + 10% dialyzed FBS, 15.4 µM	93.9	84.1	120
HPLM + 10% dialyzed FBS, 46.1 µM	94.2	75.5	114
RPMI 5 mM glucose + 10% FBS, 0.000781 µM	91	75.4	85
RPMI 5 mM glucose + 10% FBS, 0.00234 µM	88.4	81.9	88.1
RPMI 5 mM glucose + 10% FBS, 0.00702 µM	89.2	90.3	92.9
RPMI 5 mM glucose + 10% FBS, 0.0211 µM	91.7	96.9	88.6
RPMI 5 mM glucose + 10% FBS, 0.0632 µM	90.5	87.6	101
RPMI 5 mM glucose + 10% FBS, 0.19 µM	90.1	76.5	87.1
RPMI 5 mM glucose + 10% FBS, 0.569 µM	90.7	91	102
RPMI 5 mM glucose + 10% FBS, 1.71 µM	90	80.2	91.2
RPMI 5 mM glucose + 10% FBS, 5.12 µM	88.1	99.1	93.5
RPMI 5 mM glucose + 10% FBS, 15.4 µM	89.8	81.9	90.3
RPMI 5 mM glucose + 10% FBS, 46.1 µM	95.6	67	83
RPMI 5 mM glucose + 10% dialyzed FBS, 0.000781 µM	81.1	87.5	73
RPMI 5 mM glucose + 10% dialyzed FBS, 0.00234 µM	82.7	93.7	80.4
RPMI 5 mM glucose + 10% dialyzed FBS, 0.00702 µM	93.3	105	82.5
RPMI 5 mM glucose + 10% dialyzed FBS, 0.0211 µM	93	95	84.9
RPMI 5 mM glucose + 10% dialyzed FBS, 0.0632 µM	89.6	85.5	88.9
RPMI 5 mM glucose + 10% dialyzed FBS, 0.19 µM	85.3	79.4	88.8
RPMI 5 mM glucose + 10% dialyzed FBS, 0.569 µM	88.2	91.4	83
RPMI 5 mM glucose + 10% dialyzed FBS, 1.71 µM	87.2	92.2	79.8
RPMI 5 mM glucose + 10% dialyzed FBS, 5.12 µM	86.5	95.3	89.2
RPMI 5 mM glucose + 10% dialyzed FBS, 15.4 µM	85.9	95.1	99.2
RPMI 5 mM glucose + 10% dialyzed FBS, 46.1 µM	91.1	79.7	92.4

CN1C(=O)/C(=C(NC2=CC=C(I)C=C2F)\C3=C1\N=C/N(C[C@@H](O)CO)C3=O)F
AUC of viability dose-response curve
Settings	[1]	[2]	[3]
HPLM + 10% dialyzed FBS	381	339	229
RPMI 5 mM glucose + 10% FBS	342	330	231
RPMI 5 mM glucose + 10% dialyzed FBS	369	295	216

cell viability [%]
Settings	[4]	[5]	[6]
HPLM + 10% dialyzed FBS, 0.000781 µM	86.5	77.3	68.9
HPLM + 10% dialyzed FBS, 0.00234 µM	82.2	76.4	64.9
HPLM + 10% dialyzed FBS, 0.00702 µM	87.2	92.5	72.1
HPLM + 10% dialyzed FBS, 0.0211 µM	89.6	90.9	58.8
HPLM + 10% dialyzed FBS, 0.0632 µM	81.1	89.6	48.5
HPLM + 10% dialyzed FBS, 0.19 µM	82.8	79.6	48.8
HPLM + 10% dialyzed FBS, 0.569 µM	75.4	70.6	41.3
HPLM + 10% dialyzed FBS, 1.71 µM	80.3	59.6	33.7
HPLM + 10% dialyzed FBS, 5.12 µM	74.8	65.6	30.2
HPLM + 10% dialyzed FBS, 15.4 µM	71.3	18.6	36.2
HPLM + 10% dialyzed FBS, 46.1 µM	62.9	51.3	26.4
RPMI 5 mM glucose + 10% FBS, 0.000781 µM	78.2	79.2	69.9
RPMI 5 mM glucose + 10% FBS, 0.00234 µM	74.9	98.6	77.6
RPMI 5 mM glucose + 10% FBS, 0.00702 µM	83.6	107	78.7
RPMI 5 mM glucose + 10% FBS, 0.0211 µM	73.8	91.8	52.5
RPMI 5 mM glucose + 10% FBS, 0.0632 µM	71.6	74.6	48
RPMI 5 mM glucose + 10% FBS, 0.19 µM	71.3	73.2	45.7
RPMI 5 mM glucose + 10% FBS, 0.569 µM	72.1	53.9	31.1
RPMI 5 mM glucose + 10% FBS, 1.71 µM	70.4	60.2	34.6
RPMI 5 mM glucose + 10% FBS, 5.12 µM	68	68.5	30.7
RPMI 5 mM glucose + 10% FBS, 15.4 µM	68.9	12.8	37.8
RPMI 5 mM glucose + 10% FBS, 46.1 µM	40.5	30.6	32.7
RPMI 5 mM glucose + 10% dialyzed FBS, 0.000781 µM	81.1	77.5	69.2
RPMI 5 mM glucose + 10% dialyzed FBS, 0.00234 µM	82.2	71.3	60
RPMI 5 mM glucose + 10% dialyzed FBS, 0.00702 µM	85.6	90.8	71.1
RPMI 5 mM glucose + 10% dialyzed FBS, 0.0211 µM	86.7	93.2	46
RPMI 5 mM glucose + 10% dialyzed FBS, 0.0632 µM	77.7	69.6	48.9
RPMI 5 mM glucose + 10% dialyzed FBS, 0.19 µM	81.9	64.2	41.7
RPMI 5 mM glucose + 10% dialyzed FBS, 0.569 µM	76.2	54.8	37.5
RPMI 5 mM glucose + 10% dialyzed FBS, 1.71 µM	80.1	54.8	33.7
RPMI 5 mM glucose + 10% dialyzed FBS, 5.12 µM	78	53	32.7
RPMI 5 mM glucose + 10% dialyzed FBS, 15.4 µM	65.2	14.2	31.8
RPMI 5 mM glucose + 10% dialyzed FBS, 46.1 µM	39.2	28	29.5
